Where two headings read alike, the source gives them in different places.
Key:
bananas [1] = assay: Minimum amount of cyclopropene as a gas required to protect bananas from ethylene; type: in vivo, Musa paradisiaca L; conditions: for minimum concentration required for protection of bananas: 24 hour exposure, compound as a gas; for Minimum Concentration: amount of compound as a gas that would protect bananas by a 24 hour exposure; for minimum protection value: as a gas, restated with FIG. 3
Description: Untreated mature green bananas (Musa paradisiaca L) from Costa Rica which were ready for market were obtained from the local Farmers Market and were kept at 14.5° C. until use. Bananas were used within 24 hours of arrival. Experiments were conducted at approximately 22-23° C. No damaged fruit were used in the experiments. […] The jars were then vented and ethylene was injected and allowed to stand for a minimum of 15 hours and then allowed to stand at 23° C. until ethylene responses developed. For gaseous phase treatment, the compound is applied to bananas by pipetting solution onto filter paper. Filter paper is used to increase surface area in a 3 L jar. The jar is sealed for 24 hours to give enough time to diffuse through plant tissue to the ethylene binding sites. 333 ul/L of ethylene gas is added to the jars. The jars are then resealed for 15 hours. This allows for maximal exposure to ethylene to measure effectiveness of the compounds. Firmness was recorded over a number of days. Disappearance of chlorophyll was determined by extracting chlorophyll from banana peels. Absorbance was measured in a spectrometer. The minimum amount of cyclopropene necessary to protect bananas from ethylene was determined after the bananas had been exposed to the compound for 24 hours. Following this time, the fruits were vented for 10 minutes and then exposed to 333 ? l^-I of ethylene gas treatment. This has been the procedure for most other studies involving cyclopropene compounds and bananas. This time was used so that a reasonable comparison could be made with previous work ([…]. et al. 1996 a; 1996b; 1999; 2001; 2003). (See […]., et al., Effect of 1-methylcyclopropene, and methylenecyclopropene on ethylene binding and ethylene action in cut carnations, Plant Growth Reg., 18, 79-86, (1996a); […]., et al., The effect of chemical structure on the antagonism by cyclopropenes of ethylene responses in banana, Plant Growth Reg., 33, 107-110 (2001); […]., et al., 1-Substituted cyclopropenes: Effective blocking agents for ethylene action in plants, Plant Growth Reg. 40, 221-228 (2003)).

bananas [2] = assay: Time of protection of bananas against ethylene; type: in vivo, Musa paradisiaca L
Description: Untreated mature green bananas (Musa paradisiaca L) from Costa Rica which were ready for market were obtained from the local Farmers Market and were kept at 14.5° C. until use. Bananas were used within 24 hours of arrival. Experiments were conducted at approximately 22-23° C. No damaged fruit were used in the experiments. Bananas were treated to an amount of compound believed to saturate the receptor sites (10 times the minimum amount for protection). The bananas were exposed for 24 hours then vented. They were kept on a laboratory bench and each day a sample was exposed to ethylene. The day the bananas were treated with ethylene and the day the bananas turned yellow and became soft were recorded. Generally, this observation occurred about 3 days after the ethylene treatment day. The treatment day the bananas first ripened was considered to be the time of protection.

[3] = cited from earlier work
bananas [4] = assay: Stability of the compound after 1 hour incubation with acids or salts at different pH, read by banana chlorophyll; type: physicochemical, Musa paradisiaca L; conditions: for Chlorophyll (% of control): readings at 7 days
Description: Chlorophyll was determined by the method of Arnon (Arnon, D I (1949) Copper content in isolated chloroplasts. Polyphenoloxidase in Beta vulgaris. Plant Physiology 24:1-15) or by using a reflective chlorophyll meter (Field Scout CM 1000 Spectronic Technologies Inc.). To extract chlorophyll, a measured area of peel was cut from representative areas of the peel and placed in boiling water for 3 minutes. The samples were then removed and blended with acetone. After standing overnight in the dark, they were filtered then concentrated in a hood and chlorophyll determined by the method of Arnon (1949) according to the procedures outlined by Holden (1965).
However, these compounds are thought to be unstable under very acidic conditions. Liao et al. in some synthetic procedures lower the pH to 1-3.

banana peel = assay: Protection of chlorophyll in banana peel by compound applied as salt (swab) or gas, then ethylene; type: in vivo, Musa paradisiaca L; conditions: for difference between the highest and lowest chlorophyll value of the concentration series: FIG. 3, acetate salts, series 1 to 2.5 times starting at 3 times the gas minimum, 24 hour exposure; for chlorophyll level in banana peels against concentration: FIG. 6A, treated using acetic acid
Description: Untreated mature green bananas (Musa paradisiaca L) from Costa Rica which were ready for market were obtained from the local Farmers Market and were kept at 14.5° C. until use. Bananas were used within 24 hours of arrival. Experiments were conducted at approximately 22-23° C. No damaged fruit were used in the experiments. […] The jars were then vented and ethylene was injected and allowed to stand for a minimum of 15 hours and then allowed to stand at 23° C. until ethylene responses developed. When the effect of the respective salts of the cyclopropenes were assayed, the salt was mixed with the desired amount of water containing Tween 20 as a wetting agent and the acid. Usually 200 μl of water, 20 μl of Tween 20 and 100 μl of 0.1 M acid and the compound dissolved in ether were used. These salts were applied to the banana. The peels were swabbed to spread the mixture and increase the exposed surface area. The bananas were placed in an unsealed 3-liter jar and allowed to stand 24 hours. In the case of the carbonate salt, the compound was exposed to carbon dioxide in water long enough for the salt to form. In this case, the carbonate salt was formed by mixing the compound dissolved in water with CO2. The concentration of CO2 in water at 1 atmosphere and 25° C. is reported to be 0.0338 M (Daniels and Alberty 1955) (See Daniels, F, et al., Physical Chemistry, John Wiley and Sons New York, 200 (1955). […] (See Cotton, et al., Advanced Inorganic Chemistry John Wiley and Sons. New York, 152 (1999). At the end of 24 hours, ethylene was injected and the jars were sealed. After 15 hours exposure, the bananas were removed and observed for several days for the effect of ethylene. An untreated check banana and a similar untreated banana treated with ethylene only were included in each experiment for comparison. For gaseous phase treatment, the compound is applied to bananas by pipetting solution onto filter paper. Filter paper is used to increase surface area in a 3 L jar. The jar is sealed for 24 hours to give enough time to diffuse through plant tissue to the ethylene binding sites. 333 ul/L of ethylene gas is added to the jars. The jars are then resealed for 15 hours. This allows for maximal exposure to ethylene to measure effectiveness of the compounds. Firmness was recorded over a number of days. Disappearance of chlorophyll was determined by extracting chlorophyll from banana peels. Absorbance was measured in a spectrometer. For aqueous phase (salts) treatment, compounds were alternatively tested by mixing the solutions in acid and a detergent. The detergent, Tween 20, was used as a wetting agent. Solutions were then applied at various concentrations to the banana with a cotton swab. Bananas were then sealed in a jar and treated in the same manner as with the gas compound procedures described above. Chlorophyll was determined by the method of Arnon (Arnon, D I (1949) Copper content in isolated chloroplasts. Polyphenoloxidase in Beta vulgaris. Plant Physiology 24:1-15) or by using a reflective chlorophyll meter (Field Scout CM 1000 Spectronic Technologies Inc.). To extract chlorophyll, a measured area of peel was cut from representative areas of the peel and placed in boiling water for 3 minutes. The samples were then removed and blended with acetone. After standing overnight in the dark, they were filtered then concentrated in a hood and chlorophyll determined by the method of Arnon (1949) according to the procedures outlined by Holden (1965). Banana peel samples were cut and mixed with acetone to extract chlorophyll. Samples were made in an ether solution and absorbance measured at 663 nm.

[5] = 24 hour exposure at 10 times the minimum amount, daily ethylene challenge

Compound | minimum concentration required for protection of bananas (bananas [1]) | Minimum Concentration (bananas [1]) | protection time (bananas [2]) | protection time (bananas [2]; [5]) | also measured
C1=C(CNCC2=CC2)C1 | 5.3 nl l^−I | 5.7 nl/l | 33 days | 33 days | –
O=C=O [CO2, carbon dioxide] | – | – | – | – | concentration in water ([3]; 1 atmosphere and 25° C. (Daniels and Alberty 1955)): 0.0338 M
CCCCN(CCCC)CC1=CC1 [N,N--Dibutyl (1-Cyclopropenylmethyl)amine] | 184 nl l^−I | 184 nl/l | 33 days | 33 days | minimum protection value (bananas [1]): 184 nl l^−1; Chlorophyll (% of control) (bananas [4]; Gas control, bananas exposed as a gas 24 hours then ethylene 15 hours): 100 % of control; inactivation by acids or salts (bananas [4]; different pH values down to pH 1.5 for 1 hour, re-isolated and used in the usual treatments): little or no inactivation occurred; Chlorophyll (% of control) (bananas [4]; incubated 1 hour in H2O, neutralized, ether extract applied as a gas 24 hours, ethylene 15 hours): 98 % of control; Chlorophyll (% of control) (bananas [4]; incubated 1 hour in phosphoric acid (.1M, pH 1.5)): 98 % of control; Chlorophyll (% of control) (bananas [4]; incubated 1 hour in sodium acetate (0.1M, pH 4.75)): 100 % of control; Chlorophyll (% of control) (bananas [4]; incubated 1 hour in sodium formate (0.1M, pH 3.0)): 100 % of control; rapidity of receptor inactivation relative to the dimethyl compound (banana peel; FIG. 3, 24 hour exposure): 1.55 ×; difference between the highest and lowest chlorophyll value of the concentration series (banana peel): 48 % of the control; protection of bananas compared with the dimethyl compound (banana peel; FIG. 5, aqueous phase, swabbed onto the top half, four days after exposure to ethylene gas): less protection; chlorophyll level in banana peels against concentration (banana peel): ascending concentrations to have increasing levels of chlorophyll
CCN(CC)CC1=CC1 [N,N--Diethyl (1-Cyclopropenylmethyl)amine] | 59 nl l^−I | 59 nl/l | 32 days | 32 days | –
CN(C)CC1=CC1 [N,N--Dimethyl (1-Cyclopropenylmethyl)amine] | 73 nl l^−I | 73 nl/l | 34 days | 34 days | minimum protection value (bananas [1]): 73 nl l^−1; difference between the highest and lowest chlorophyll value of the concentration series (banana peel): 30.9 % of the control; chlorophyll level in banana peels against concentration (banana peel): ascending concentrations to have increasingly higher chlorophyll levels
O=C(O)O [carbonic acid] | – | – | – | – | pKa ([3]; corrected for the equilibrium (Cotton et al. 1999)): 3.58; pKa ([3]; usually published value): 6.38
N-(1-methylcyclopropene)-aniline | 248 nl l^−I | 248 nl/l | 32 days | 32 days | –

Source: patent US8093430B2, “Methods of inhibiting ethylene responses in plants using cyclopropene amine compounds” (North Carolina State University, priority 2007, dated 2012)
